Measurements published in ChEMBL document CHEMBL6103592, “Discovery of novel thiazole-pleuromutilin derivatives with potent antibacterial activity” (Eur J Med Chem, 2025).
In brackets after ≈: the same amount, converted by molar mass. Activity calls are given as the source filed them. The rule behind the calls is not given here.

Legend:
Staphylococcus aureus [1] = assay: Antibacterial activity against methicillin-resistant Staphylococcus aureus ATCC 43300 assessed as reduction in bacterial proteins level at 0.5 to 2 microg/ml measured for 4 hrs; type: functional, organism-based; conditions: dose 0.5-2 µg/ml
[2] = Acute toxicity in rat assessed as relative liver weight at 2000 mg/kg, po administered for 7 days followed by readministration after 7 days and measured at 14 days (reference value: 4.36 +/- 0.23 %); type: organism-based; conditions: in vivo, 336 h, time 14 day
[3] = Acute toxicity in rat assessed as degeneration of glandular epithelial cells at 2000 mg/kg, po measured for 14 days by H and E staining based analysis; type: organism-based; conditions: in vivo, 336 h, time 14 day
Staphylococcus aureus [4] = assay: (§1) Antibacterial efficacy against methicillin-resistant Staphylococcus aureus ATCC 43300 infected in cyclophosphamide-induced neutropenic systemic infection Kunming mouse model assessed as reduction in bacterial load in lung at 20 mg/kg, iv pretreated with cyclophosphamide for 1 hr followed by compound addition and measured after 5 days; type: functional; conditions: time 5 day
[5] = Acute toxicity in rat assessed as body weight change at 2000 mg/kg, po measured at 24 hrs; type: organism-based; conditions: in vivo
[6] = Acute toxicity in rat assessed as relative lung weight at 2000 mg/kg, po administered for 7 days followed by readministration after 7 days and measured at 14 days (reference value: 0.58 +/- 0.03 %); type: organism-based; conditions: in vivo, 336 h, time 14 day
[7] = Acute toxicity in rat assessed as relative heart weight at 2000 mg/kg, po administered for 7 days followed by readministration after 7 days and measured at 14 days (reference value: 0.40 +/- 0.06 %); type: organism-based; conditions: in vivo, 336 h, time 14 day
Staphylococcus aureus [8] = assay: Bactericidal activity against methicillin-resistant Staphylococcus aureus ATCC 43300 at 1 to 6 times MIC incubated upto 24 hrs by time-kill assay; type: functional, organism-based
Staphylococcus aureus [9] = assay: Antibacterial activity against methicillin resistant Staphylococcus aureus; type: functional
Staphylococcus aureus [10] = assay: Drug resistance, ratio of MIC for methicillin-resistant Staphylococcus aureus ATCC 43300 after 21 passages to MIC for methicillin-resistant Staphylococcus aureus ATCC 43300 during first exposure; type: functional
[11] = Acute toxicity in rat assessed as pathological changes in spleen at 2000 mg/kg, po measured for 14 days; type: organism-based; conditions: in vivo, 336 h, time 14 day
Enterococcus faecalis = assay: Antibacterial activity against Enterococcus faecalis assessed as inhibition of visible bacterial growth incubated for 24 hrs by CLSI based broth microdilution method; type: functional
[12] = Acute toxicity in rat assessed as relative uterus weight at 2000 mg/kg, po administered for 7 days followed by readministration after 7 days and measured at 14 days (reference value: 0.27 +/- 0.09%); type: organism-based; conditions: in vivo, 336 h, time 14 day
Streptococcus agalactiae = assay: Antibacterial activity against Streptococcus agalactiae assessed as inhibition of visible bacterial growth incubated for 24 hrs by CLSI based broth microdilution method; type: functional
[13] = Acute toxicity in rat assessed as absolute uterus weight at 2000 mg/kg, po administered for 7 days followed by readministration after 7 days and measured at 14 days (reference value: 0.52 +/- 0.18 g); type: organism-based; conditions: in vivo, 336 h, time 14 day
[14] = Acute toxicity in rat assessed as absolute liver weight at 2000 mg/kg, po administered for 7 days followed by readministration after 7 days and measured at 14 days (reference value: 8.43 +/- 0.43 g); type: organism-based; conditions: in vivo, 336 h, time 14 day
[15] = Acute toxicity in rat assessed as necrosis of glandular epithelial cells at 2000 mg/kg, po measured for 14 days by H and E staining based analysis; type: organism-based; conditions: in vivo, 336 h, time 14 day
Staphylococcus aureus [16] = assay: Bactericidal activity against methicillin-resistant Staphylococcus aureus ATCC 43300 assessed as increase in colony forming unit count at 1 times MIC incubated after 8 hrs by time-kill assay; type: functional, organism-based
[17] = Acute toxicity in rat assessed as relative spleen weight at 2000 mg/kg, po measured for 7 days (reference value: 0.27 +/- 0.02%); type: organism-based; conditions: in vivo, 168 h, time 7 day
Staphylococcus aureus [18] = assay: Bactericidal activity against methicillin-resistant Staphylococcus aureus ATCC 43300 at 1 times MIC incubated upto 24 hrs by time-kill assay; type: functional, organism-based
Escherichia coli = assay: Antibacterial activity against Escherichia coli ATCC 25922 assessed as inhibition of visible bacterial growth incubated for 24 hrs by CLSI based broth microdilution method; type: functional
Staphylococcus aureus [19] = assay: Antibacterial activity against Staphylococcus aureus ATCC 25923 assessed as inhibition of visible bacterial growth incubated for 24 hrs by CLSI based broth microdilution method; type: functional
Staphylococcus aureus [20] = assay: Bactericidal activity against methicillin-resistant Staphylococcus aureus ATCC 43300 assessed as log reduction in bacterial count count at 6 times MIC incubated at 24 hrs by time-kill assay; type: functional
[21] = Cytotoxicity against human HEK293T cells assessed as cell viability at 200 micromol/L incubated for 24 hrs by CCK-8 assay relative to control; type: toxicity, cell-based, HEK-293T; conditions: dose 200 µmol/L, read-out: Activity
[22] = Acute toxicity in rat assessed as necrosis of epithelial cells at 2000 mg/kg, po measured for 14 days by H and E staining based analysis; type: organism-based; conditions: in vivo, 336 h, time 14 day
[23] = Acute toxicity in po dosed rat assessed as lethal dose measured for 14 days […]; type: organism-based; conditions: in vivo, time 14 day
Staphylococcus aureus [24] = assay: as §1, with “effect on survival rate” for “reduction in bacterial load in lung”, “7” for “5”; type: functional, organism-based; conditions: time 7.0 day

Question: For `C=C[C@]1(C)C[C@@H](OC(=O)CSc2nc(OC(=O)c3ccc(C(C)(C)C)cc3)cs2)[C@]2(C)[C@H](C)CC[C@]3(CCC(=O)[C@H]32)[C@@H](C)[C@@H]1O`, which Activity (Staphylococcus aureus [1]) is on record?
Answer: Active

Question: And the Activity [2]?
Answer: 3.97%

Question: And the Activity [3]?
Answer: Non-toxic

Question: And the Activity (Staphylococcus aureus [4])?
Answer: 0.9 log10CFU

Question: And the Activity [5]?
Answer: Non-toxic

Question: What about the Activity [6] of the same molecule?
Answer: 0.59%

Question: What about the Activity [7] of the same molecule?
Answer: 0.36%

Question: What about the Activity (Staphylococcus aureus [8]) of the same molecule?
Answer: Dose-dependent-effect

Question: And the MIC (Staphylococcus aureus [9])?
Answer: 0.5 mg/L (≈ 0.765 µM)

Question: What about the Ratio (Staphylococcus aureus [10]) of the same molecule?
Answer: 16

Question: What about the Activity [11] of the same molecule?
Answer: Non-toxic

Question: And the MIC (Enterococcus faecalis)?
Answer: > 32 mg/L

Question: What about the Activity [12] of the same molecule?
Answer: 0.23%

Question: What about the MIC (Streptococcus agalactiae) of the same molecule?
Answer: 0.063 mg/L (≈ 0.0963 µM)

Question: And the Activity [13]?
Answer: 0.5 g

Question: And the Activity [14]?
Answer: 8.57 g

Question: What about the Activity [15] of the same molecule?
Answer: Non-toxic

Question: And the Activity (Staphylococcus aureus [16])?
Answer: Active

Question: What about the Activity [17] of the same molecule?
Answer: 0.28%

Question: And the Activity (Staphylococcus aureus [18])?
Answer: Active

Question: What about the MIC (Escherichia coli) of the same molecule?
Answer: > 32 mg/L

Question: What about the MIC (Staphylococcus aureus [19]) of the same molecule?
Answer: 0.25 mg/L (≈ 0.382 µM)

Question: And the “log(activity)” value (Staphylococcus aureus [20])?
Answer: 3.08

Question: And the viability at 24 h, 200 µM [21]?
Answer: 60%

Question: What about the Activity [22] of the same molecule?
Answer: Non-toxic

Question: And the LD50 at 336 h [23]?
Answer: 2000 mg/kg

Question: What about the Activity (Staphylococcus aureus [24]) of the same molecule?
Answer: Active
